# Measured values: publication PMC9499463, “Potent Chlorambucil-Platinum(IV) Prodrugs” (International Journal of Molecular Sciences, 2022)
# Several values for one entry are separate records, joined by “and”; a condition that tells them apart may be missing. Identical values can stand only once.
# Tests used:
# [1] = test system: HT29 colon; test: MTT growth inhibition assay, 72 h; assay type: cell-based, human; conditions: MTT, 72 h
# [2] = test system: MIA pancreas; test: MTT growth inhibition assay, 72 h; assay type: cell-based, human; conditions: MTT, 72 h
# [3] = Stability in solvent systems by HPLC; assay type: physicochemical; conditions: room temperature
# Method: The stability of PCLB, 5CLB, and 56CLB was evaluated by HPLC. The complexes were tested in three solvent systems, 10 mM PBS (~7.4 pH), 0.9% NaCl and d.i.H2O/DMSO (50:50). This process was followed for 1 h at room temperature for each complex in each solvent system (Table 3 and Figure S32). However, it is noteworthy that when these complexes are left in solution for more extended periods, reduction to the corresponding platinum(II) species appears inevitable (Figure S33). This is likely influenced by the nature of the coordinated CLB ligand, which is highly susceptible to rapid hydrolysis due to its functional group.
# The stability of PCLB, 5CLB, and 56CLB was monitored using an Agilent Technologies 1260 Infinity instrument equipped with a Phenomenex Onyx^TM Monolithic C18-reverse phase column (100 × 4.6 mm, 5 µm pore size). The mobile phase consisted of solvents, A (0.06% TFA in d.i.H2O) and B (0.06% TFA in CH3CN/d.i.H2O (90:10)). An injection volume of 5 µL was utilized and eluted with a 0–100% linear gradient over 15 min with a flow rate of 1 mL/min, at the set wavelengths of 214 and 254 nm. Each complex was dissolved separately in three solvent systems including, 10 mM phosphate-buffered saline (PBS) at ~7.4 pH, 0.9% sodium chloride (NaCl) or standard saline solution and d.i.H2O/DMSO (50:50). Each HPLC run per solvent system was followed for 1 h at room temperature.
# [4] = Reduction experiments with ascorbic acid by 1H-NMR and 1D-195Pt-NMR; assay type: physicochemical; conditions: 10 mM AsA, 10 mM PBS (~7.4 pH), D2O, 37 °C, 1H-NMR
# Method: Intracellularly, a platinum(IV) complex is reduced into its platinum(II) congener and axial ligands in the presence of biological reducing agents such as AsA or glutathione. This report followed the reduction in PCLB, 5CLB, and 56CLB using ^1H-NMR and 1D-^195Pt-NMR spectroscopy. The method used for the reduction experiments was adapted from the literature with minor modifications. A total of 10 mM PBS (~7.4 pH) was selected as media to mimic physiological conditions, while 10 mM AsA was used as the biological reducing agent. Prior to the reduction experiments, a control was considered where each metal complex was dissolved with PBS in D2O. 1D-^195Pt-NMR was employed within the regions of −2800 and 400 ppm (30 min per region) at 37 °C. Typically, our platinum(II) complexes resonate within the −2800 ppm region (Figures S1–S3), while their platinum(IV) derivatives resonate around the 400 ppm region (Figures S4–S6). A control was required to ensure that the PBS would not interfere in the reduction process of the complexes. From the preliminary 1D-^195Pt-NMR spectra obtained (Figure 11), the state of all complexes was unchanged, and no sign of reduction was observed.
# The reduction property of PCLB was monitored for 1 h by ^1H-NMR spectroscopy at 37 °C (Figure 12). Utilizing the resonances of the phenanthroline protons (H2 and H9; H4 and H7; H5 and H6; H3 and H8) from both platinum(II) and (IV) species as a qualitative measure of […], and considering that the resonances of these phenanthroline protons from both platinum(II) and (IV) species were almost equivalent, it is estimated that 40–50% reduction occurs within 10 min. […] A notable observation from the ^1H-NMR experiments is the movement of resonances, particularly the upfield shift of the phenanthroline protons and the downfield shift of the aromatic protons of CLB (Figure 12).
# The reduction behavior of PCLB, 5CLB, and 56CLB was monitored using ^1H-NMR and 1D-^195Pt-NMR spectroscopy. A sequence of ^1H-NMR experiments was carried out for 1 h at 37 °C, followed by 1D-^195Pt-NMR within the regions of −2800 and 400 ppm. An amount of 10 mM PBS (~7.4 pH) was transferred to a vial and reduced to dryness through rotary evaporation. AsA (~1 mg) was combined with the metal complex (~5 mg) and transferred to the vial containing the dried PBS. A total of 600 µL of D2O was then added to the vial to dissolve the complex, AsA and the PBS together. Each reaction was followed at 37 °C until the complete reduction in the prodrugs.
Compound,GI50 [1],GI50 [2] [nM],"HPLC Peak Areas at 254 nm ([3]; 0.9% NaCl, 30 min) [%]","HPLC Peak Areas at 254 nm ([3]; 0.9% NaCl, 1 h) [%]","HPLC Peak Areas at 254 nm ([3]; PBS (~7.4 pH), 30 min) [%]","HPLC Peak Areas at 254 nm ([3]; PBS (~7.4 pH), 1 h) [%]","HPLC Peak Areas at 254 nm ([3]; d.i.H2O/DMSO (50:50), 30 min) [%]","HPLC Peak Areas at 254 nm ([3]; d.i.H2O/DMSO (50:50), 1 h) [%]",time to reach 50% reduction [4],state of the complex at 1 h [4],time at which the complex started reducing [4] [min]
"Cc1cc2cccnc2c2ncccc12.N[C@H]1CCCC[C@@H]1N.O=C([O-])CCCc1ccc(N(CCCl)CCCl)cc1.O=[N+]([O-])[O-].O=[N+]([O-])[O-].[OH-].[Pt+4] [5CLB, [Pt^IV(5-methyl-1,10-phenanthroline)(S,S-DACH)(CLB)(OH)](NO3)2]",19 ± 0.0054 nM,34 ± 0.005,73.9,72.4,68.8,67.3,76.5,75.8,approximately 5 min,–,–
"Cc1c(C)c2cccnc2c2ncccc12.N[C@H]1CCCC[C@@H]1N.O=C([O-])CCCc1ccc(N(CCCl)CCCl)cc1.O=[N+]([O-])[O-].O=[N+]([O-])[O-].[OH-].[Pt+4] [56CLB, [Pt^IV(5,6-dimethyl-1,10-phenanthroline)(S,S-DACH)(CLB)(OH)](NO3)2]",6 nM and 6.1 nM,11 ± 0.003,84.6,82.5,78.2,75.2,85.0,84.3,approximately 5 min,–,–
"O=C(CCCc1ccc(N(CCCl)CCCl)cc1)[O][Pt-2]12([OH])([NH2+][C@H]3CCCC[C@@H]3[NH2+]1)[n+]1cccc3ccc4ccc[n+]2c4c31.O=[N+]([O-])[O-].O=[N+]([O-])[O-] [PCLB, [Pt^IV(1,10-phenanthroline)(S,S-DACH)(CLB)(OH)](NO3)2]",170 ± 0.046 nM,190 ± 0.032,89.4,87.5,85.0,83.1,93.2,92.4,–,almost reduced to its platinum(II) congener,5
